# Assay results as given in US6576671B1, “Aminotetralin derivatives for the therapy of cardiovascular diseases” (Chiese Farmaceutici S.p.A., priority 1999, dated 2003).
# pIC50: −log10 of the molar value.
# Tests used:
# dogs = settings: approximately 10 μg/kg per minute continuous intravenous infusion; cited from earlier work
# α2 adrenergic receptors [1] = test: α2 adrenergic receptor binding, [3H]-rauwolscine, rat cerebral cortex; settings: for pIC50: rat cerebral cortex, read-out: IC50, 50% inhibition of [3H]-rauwolscine specific binding
# Procedure: The affinity of CHF 1024 and CHF 1035 for α2, adrenergic receptors was tested on human platelets and on rat cerebral cortex.
# (§1) The antagonist [^3H]-rauwolscine was used as marker of the receptor, being its binding reversible, saturable and specific.
# Values are expressed as IC50=molar concentration of drug required for 50% inhibition of [^3H]-rauwolscine specific binding.
# α2-adrenergic receptors = test: α2-adrenergic activity in isolated neuronally-stimulated rat vas deferens; settings: for pIC50: isolated neuronally-stimulated rat vas deferens, read-out: IC50, 50% inhibition of the electrically induced contraction
# [2] = biological target: peripheral DA2 dopaminergic receptors (Oryctolagus cuniculus, UniProt G1T1Q0); test: Peripheral DA2 dopaminergic activity in electrically stimulated rabbit rectococcygeus muscle; settings: for pIC50: read-out: IC50, 50% inhibition of the electrically induced contraction
# Text: The activity of CHF 1024 and CHF 1035 on peripheral DA2 dopaminergic receptors has been tested in the electrically stimulated rabbit rectococcygeus muscle.
# [3] = test system: rats with left ventricular dysfunction; test: Rat model of left ventricular dysfunction after coronary artery occlusion, urine catecholamine excretion; assay type: in vivo
# Procedure: Myocardial infarction (MI) was induced by left coronary artery ligation in 134 rats, and 6 were left unoperated. After two months, the survived animals with ECG evidence of MI entered a four-week treatment phase. They were randomly allocated to one of the following treatments: 1) delapril 6 mg.kg^−1.day^−1, (n=12), 2) delapril 6 mg.kg^−1.day^−1 and CHF 1024 0.33 mg.kg^−1.day^−1(n=13), 3) vehicle (0.05% ascorbic acid; n=12).
# Delapril was dissolved in drinking water at the final concentration of 0.043 mg/ml. The delapril solutions were prepared, freshly every third day and their concentration adjusted to body weight every 15 days to obtain an average dose of 6 mg.kg^−1.day^−1.
# CHF 1024 was administered continuously for four weeks through osmotic minipumps implanted subcutaneously behind the neck.
# Concentrated solutions of CHF 1024 were dissolved in 10% ascorbic acid in distilled water at a final concentration of 40 mM (mean delivery rate 0.33 mg.kg^−1.day^−1).
# At week 4 of treatment, the rats were placed in individual metabolic cages to collect 24-hour urine for measuring catecholamine excretion. […] Only rats with mean infarct size >12%, histologically determined in 6-10 serial cross-sections as percentage of LV area, were analyzed. The numbers of animals analyzed in each experimental group were 6 (vehicle), 6 (delapril alone), 8 (delapril and CHF 1024) and 6 non-operated.
# α2 adrenergic receptors [4] = biological target: T1, α2 adrenergic receptors (Homo sapiens, UniProt P08913); test: α2 adrenergic receptor binding, [3H]-rauwolscine, human platelets
# T1 construct: from tissue; host or cells: human platelets
# T1 sequence (P08913 1-465): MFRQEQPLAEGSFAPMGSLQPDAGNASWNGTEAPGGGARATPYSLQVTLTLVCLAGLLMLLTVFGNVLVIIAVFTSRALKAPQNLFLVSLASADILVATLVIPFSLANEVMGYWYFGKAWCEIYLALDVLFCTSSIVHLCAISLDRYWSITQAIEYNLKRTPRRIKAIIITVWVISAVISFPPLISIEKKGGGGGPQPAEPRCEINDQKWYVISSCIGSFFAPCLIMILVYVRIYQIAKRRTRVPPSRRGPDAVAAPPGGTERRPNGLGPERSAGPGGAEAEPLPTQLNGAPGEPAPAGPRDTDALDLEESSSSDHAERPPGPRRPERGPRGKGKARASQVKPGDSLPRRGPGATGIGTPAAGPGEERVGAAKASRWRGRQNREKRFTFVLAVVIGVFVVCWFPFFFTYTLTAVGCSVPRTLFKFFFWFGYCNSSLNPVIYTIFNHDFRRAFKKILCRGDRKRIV
# Text: as §1
# [5] = biological target: T2, peripheral DA2 dopaminergic receptors (Bos taurus, UniProt P20288); test: Peripheral DA2 dopaminergic binding test, [3H](-)sulpiride, bovine adrenal cortex
# T2 construct: peripheral DA2 dopaminergic receptors was tested on bovine adrenal cortex; from tissue; host or cells: bovine adrenal cortex
# Procedure: The affinity of CHF 1024 for peripheral DA2 dopaminergic receptors was tested on bovine adrenal cortex evaluating its effect on the interaction of [^3H](-)sulpiride with the specific binding sites of this system.
# dopamine receptor = settings: cited from earlier work
# anesthetized rats = test: In vivo cardiovascular effects in anesthetized rats; set-up: species or system rat; settings: for mean arterial pressure, change from basal value: 0.69 µg/kg/min i.v.
# Procedure: Male albino rats (Sprague Dawley, 350-400 g) were anesthetized by sodium pentobarbital (60 mg/kg) and maintained by i.v. infusion (6 mg/h). The trachea was cannulated to facilitate spontaneous respiration and body temperature was maintained at 37 C. Homoiothermic Blanket Control System (Harvard, England).
# The right femoral artery was cannulated for arterial blood pressure measurement and left jugular vein or duodenum were cannulated for drug administration. Mean arterial pressure and heart rate were continuously monitored by pressure transducer and medium gain amplifier triggered by the ECG signal, respectively. […]
# CHF 1035 was administered intraduodenally (1 mg/kg).
# The response to […] was determined in the absence and in the presence of the selective β2-adrenoceptor antagonist ICI 118.551 (0.2 mg/kg i.v.) and the selective DA2-dopaminergic antagonist domperidone (0 3 mg/kg i.v.) both alone and in combination. The antagonists were administered 10 min before the i.d. drug administration.
# peripheral DA2 dopaminergic receptors (Oryctolagus cuniculus, UniProt G1T1Q0), sequence (G1T1Q0 1-443): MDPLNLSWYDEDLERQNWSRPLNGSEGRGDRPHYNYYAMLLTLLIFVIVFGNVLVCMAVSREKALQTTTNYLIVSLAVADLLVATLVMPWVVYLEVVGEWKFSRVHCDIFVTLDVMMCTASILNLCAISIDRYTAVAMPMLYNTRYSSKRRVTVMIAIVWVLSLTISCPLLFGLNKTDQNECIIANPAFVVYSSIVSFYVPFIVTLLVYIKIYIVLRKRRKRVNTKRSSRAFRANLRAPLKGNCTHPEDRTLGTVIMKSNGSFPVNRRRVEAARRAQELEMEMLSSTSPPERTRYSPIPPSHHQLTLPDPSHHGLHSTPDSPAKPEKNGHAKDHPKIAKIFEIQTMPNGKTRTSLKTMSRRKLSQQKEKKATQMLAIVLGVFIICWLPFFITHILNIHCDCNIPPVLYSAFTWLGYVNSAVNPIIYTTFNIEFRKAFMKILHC
# T2 sequence (P20288 whole entry): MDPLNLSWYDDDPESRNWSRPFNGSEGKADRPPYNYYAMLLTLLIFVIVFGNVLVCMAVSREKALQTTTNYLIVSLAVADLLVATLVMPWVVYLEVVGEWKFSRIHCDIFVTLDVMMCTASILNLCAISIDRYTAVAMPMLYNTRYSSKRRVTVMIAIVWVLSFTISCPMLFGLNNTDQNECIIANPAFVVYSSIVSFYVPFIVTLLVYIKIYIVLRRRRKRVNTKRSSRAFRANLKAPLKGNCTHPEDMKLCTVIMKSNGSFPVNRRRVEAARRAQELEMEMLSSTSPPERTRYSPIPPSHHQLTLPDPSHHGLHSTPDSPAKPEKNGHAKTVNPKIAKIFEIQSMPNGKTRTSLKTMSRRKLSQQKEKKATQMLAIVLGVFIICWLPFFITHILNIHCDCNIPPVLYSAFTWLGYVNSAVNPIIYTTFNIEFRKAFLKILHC
smiles,measurement,setting,value
"Br.CNC1CCc2c(ccc(O)c2O)C1 (stereo not drawn) [5,6-dihydroxy-2-methylaminotetralin hydrobromide]",coronary blood flow,dogs,substantial increase
"NCCc1ccc(O)c(O)c1 [DOPAMINE, dopamine, reference compound]",pIC50,α2 adrenergic receptors [1],5.39
same,pIC50,α2-adrenergic receptors,5.31
same,pIC50,[2],7.00
"CCOC(=O)[C@H](CCc1ccccc1)N[C@@H](C)C(=O)N(CC(=O)O)C1Cc2ccccc2C1 [delapril, reference compound]",urine norepinephrine excretion,"[3]; delapril alone 6 mg.kg^−1.day^−1, week 4, 24-hour urine",unaffected
"CNC1CCc2c(ccc(O)c2O)C1 (stereo not drawn) [CHF 1024, 5,6-dihydroxy-2-methylaminotetralin]","urine norepinephrine excretion, reduced with respect to the vehicle group","[3]; CHF 1024 0.33 mg.kg^−1.day^−1 s.c. minipump added to delapril 6 mg.kg^−1.day^−1, week 4",40%
same,pIC50,"α2 adrenergic receptors [4]; human platelets, read-out: IC50, 50% inhibition of [3H]-rauwolscine specific binding",6.47
same,affinity higher than dopamine,α2 adrenergic receptors [4]; platelets,9 times
same,pIC50,[5],7.68
same,affinity for DA2 receptors higher than dopamine,[5]; bovine adrenal cortex,11 times
same,dopamine receptor agonist activity in relaxing splenic artery strips,dopamine receptor,inactive
same,affinity higher than dopamine,α2 adrenergic receptors [1]; cerebral cortex,15 times
same,pIC50,α2 adrenergic receptors [1],6.58
same,"mean arterial pressure, change from basal value",anesthetized rats; 5 min after infusion start,−24.0
same,"mean arterial pressure, change from basal value",anesthetized rats; 5 min after infusion stop,−12.7
same,"mean arterial pressure, change from basal value",anesthetized rats; 30 min after infusion start,−25.7
same,"mean arterial pressure, change from basal value",anesthetized rats; 30 min after infusion stop,−6.7
same,effect on mean arterial pressure,"anesthetized rats; intravenous administration, persists after infusion discontinuation",dose-dependent reduction
same,heart rate,"anesthetized rats; intravenous infusion, in spite of marked hypotension",no increase
same,pIC50,α2-adrenergic receptors,6.57
same,more potent than dopamine,α2-adrenergic receptors; rat vas deferens,about 20 times
same,effect in presence of selective DA2-antagonist domperidone,[2],competitively antagonized
same,more potent than dopamine,[2],approximately 3 times
same,pIC50,[2],7.43
